# Columns and labels:
# neutrophil = test: Neutrophil chemokine production assay; type: cell-based, human; conditions: 12 h
# Experimental: A volume 25 mL of human blood was layered over 15 mL of Histopaque®-1077 and centrifuged at 500 g, RT, for 30 min with no break applied to the centrifuge. The PBMC band and Histopaque®-1077 layer were removed leaving behind the bottom red layer which was mixed with 40 mL of 1× red blood cell (RBC) lysis buffer (Sigma-Aldrich) was and split into two 50 mL tubes. The volume for both fractions was brought to 50 mL with RBC lysis buffer, mixed by inversion, and then incubated at RT for 10 min. Solutions were centrifuged at 250 g, for 10 min at RT and the supernatant liquids removed. The reddish pellets were re-suspended in 1 mL of RBC lysis buffer and combined. The cell suspension was incubated for 5 min at RT in RBC lysis buffer. After incubation 45 mL of Hanks Balanced Salt Solution with no calcium, magnesium or phenol red (HBSS−) was added, the cell suspension was spun (250 g for 10 min at RT), and supernatant liquids were removed. The white pellet was re-suspended in 1 mL of HBSS−, and cell counts were determined. The neutrophil cell suspension was brought to a concentration of 1.11e6 cells/mL in RPMI complete (Sigma-Aldrich), and 180 μL of cell suspension was transferred to all wells within a sterile 96-well tissue culture treated plate resulting in 2.0e5 cells/well. […] After incubation, 10 μL of 2 μg/mL LPS solution in RPMI complete was added to each well except for control wells, which received an additional 10 μL of media. Cells were incubated for 12 h (37° C., 5% CO2), after which plates were centrifuged at 250 g, RT, for 5 min and supernatant liquids were obtained and stored at −80° C. until analyzed via Luminex® Multiplex Assay for various chemokines and cytokines. Three data points were acquired from two different blood donors and averaged.
# [1] = test system: Primary Human Peripheral Blood Mononuclear Cells (PBMCs); test: Inflammatory signals in LPS-treated primary human PBMCs; type: cell-based; conditions: 100 uM, 24 hours
# Experimental: Human donor blood (8 mL) was collected in sodium citrate CPT tubes and centrifuged at 1,600×g for 20 minutes at room temperature. Buffy coat containing PBMCs was collected and transferred to a 50 mL conical tube containing 30 mL of RPMI-1640 medium at room temperature (supplemented with penicillin-streptomycin). PBMCs samples were centrifuged at 400×g for 10 minutes at 10° C. The pelleted PBMCs were washed twice in 10 ml of RPMI-1640 medium (supplemented with penicillin-streptomycin), then resuspended in RPMI-1640 medium (supplemented with penicillin-streptomycin, fetal bovine serum, and L-Glutamine). PBMCs were filtered through a 70 micron mesh to remove any cellular debris. […] PBMCs in a 96-well plate were rested for 30 minutes in a 37° C., 5% CO2 incubator, then subsequently treated with 10 μl of indicated compound. After 2 hours 10 μL of LPS (O111:B4) 1 mg/mL was added to test wells. After 24 hours of incubation at 37° C., 5% CO2, 100 μL of cell supernatant was collected and transferred to a 96-well plate (non-tissue treated, flat bottom). The plate was centrifuged at 350×g for 5 minutes at room temperature, and then the clear supernatant transferred to a new 96-well plate (non-tissue treated, flat bottom). The remaining cells were tested for viability using CellTiter-Glo® Luminescent Cell Viability Assay (Promega). The supernatant was analyzed for TNFα, IL-6 and […] Systems), using Luminex Immunoassay Technology (MAGPIX System). Cytokine levels of LPS treated DMSO control samples were set to 100%, and compound treated samples were expressed relative to this (Table 3).
# naïve CD4+ T cells = test: Human regulatory T cell differentiation assay; type: cell-based; conditions: 6 days
# Experimental: Peripheral blood mononuclear cells (PBMCs) from whole blood donated by health volunteers were separated by Ficoll-Paque gradient centrifugation and naïve CD4^+ T cells were subsequently isolated using magnet beads (EasySep™ Human Naïve CD4^+ T Cell Isolation Kit, Cambridge, MA). For regulatory T cell (Treg) differentiation assay, naïve CD4^+ T cells were cultured (1-10×10^4 cells) in CTS OpTmizer medium for 6 days and stimulated with 5 ng/ml TGF-β, 100 U/ml IL-2, and ImmunoCult™ Human […] T Cell Activator; Stemcell #10990) with/without our Compounds. Cell viability was determined using a viability dye (eBioscience Fixable Viability Dye eFluor 780: ThermoFisher 65-0865-14) at 1:500 dilution. The cells were gated for Treg, defined as Live, CD11c^−, CD14^−, CD19^−, CD8^−, CD4^+, CD3^+, CD25^+, FOXP3^+. Percent (%) Tregs were calculated as percentage of CD4^+, CD25^+, FOXP3^+ cells over total CD4 T cells. Statistical analysis was performed with GraphPad Prism Software Using One-Way ANOVA.
# AhR = AhR activation in Caco-2 cells through CYP1A1 mRNA expression; conditions: overnight
# Experimental: Caco-2 cells from American Type Culture Collection (ATCC) were plated in a sterile tissue culture treated 96-well plate (ThermoFisher) at […], and grown overnight at 37° C., 5% CO2 in DMEM complete (Gibco) in order to achieve confluence. After the incubation medium was aspirated off of the Caco-2 monolayers, tissues were then washed with 200 μL of warmed PBS solution, and subsequently 190 μL of pre-warmed growth medium was added to each well. Compounds of interest were diluted at a 20× concentration in growth medium containing 2% DMSO, and 10 μL of compound solutions were added to respective wells in triplicate. Compounds where incubated overnight at 37° C., 5% CO2. 2-(1′H-indole-3′-carbonyl)-thiazole-4-carboxylic acid methyl ester (ITE) was used as the positive control for AhR activation at 1 and 100 μM concentrations. At the end of the incubation, medium was aspirated off of the Caco-2 cells, and the cells washed with 100 μL of cold PBS solution. RNA was extracted via the TaqMan™ Gene Expression Cells-to-CT™ Kit (ThermoFisher) according to the manufacturers protocol. The QuantStudio 6 Flex (Applied Biosciences) was used to analyze mRNA levels of CYP1A1 using GAPDH as the endogenous control. TaqMan™ probe sets for both genes were acquired from ThermoFisher. Samples were run in triplicate and data was analyzed using the QuantStudio software and reported as linear (Table 1) and log 2(ΔΔCT) values. Statistical analysis was performed using a two-tailed t-test comparing CYP1A1 levels in the presence of each individual compound to the vehicle negative control.
# [2] = test system: type II collagen arthritis; test: In vivo rheumatoid arthritis model (semi-established type II collagen arthritis); parameters: species or system Lewis rats; conditions: 420 mg/kg PO BID, rats
# Experimental: A study was conducted to determine the efficacy of test articles dosed by the oral (PO) route for inhibition of the inflammation (paw swelling), cartilage destruction, and bone resorption that occurs in semi-established type II collagen arthritis in female Lewis rats. Rats (10 per group) were injected intradermally (ID) with porcine type II collagen to induce arthritis; one group of rats (4 per group) served as vehicle-treated naïve controls. […] Positive controls were treated PO, BID with the reference compound Tofacitinib citrate (10 mg/kg). The rats were euthanized for necropsy on study day 21 (animals #1-5 in each group, animals #1-2 in naïve group) or 22 (animals #6-10 in each group, animals #3-4 in naïve group). Efficacy evaluation was based on animal body weights (Table 9), daily ankle caliper measurements (FIG. 4), ankle diameter expressed as area under the curve (AUC) (Table 10), terminal hind paw weights (Table 11), histopathologic evaluation of hind paws (Ankle Inflammation score: Table 12, Ankle Pannus score: Table 13, Ankle Cartilage Damage score: Table 14, Ankle Bone Resorption score: Table 15, Ankle Periosteal Bone score: Table 16, Ankle Periosteal Bone Width: Table 17) and knees (Knee Inflammation score: Table 18, Knee Pannus score: Table 19, Knee Cartilage Damage score: Table 20, Knee Bone Resorption score: Table 21), and relative spleen to body weight ratio (Table 22). Terminal serum was analyzed by enzyme-linked immunosorbent assay (ELISA) for anti-type II collagen antibodies (IgG) (Table 23). […] Statistics were conducted using ordinary one-way ANOVA with Dunnett's multiple comparison correction in GraphPad Prism.
smiles,measurement,setting,value
CCC(=O)O [propionate],% IL-8 (Vehicle + LPS = 100%),neutrophil; 500.0 μM,− (− = >90% Vehicle)
same,% MIP-1α (Vehicle + LPS = 100%),neutrophil; 500.0 μM,+++ (+++ = <50% Vehicle)
same,% MIP-1β (DMSO + LPS = 100%),neutrophil; 500.0 μM,+++ (+++ = <50% Vehicle)
same,% IL-8 (Vehicle + LPS = 100%),neutrophil; 1000.0 μM,++ (++ = <70%Vehicle)
same,% MIP-1α (Vehicle + LPS = 100%),neutrophil; 1000.0 μM,+++ (+++ = <50% Vehicle)
same,% MIP-1β (DMSO + LPS = 100%),neutrophil; 1000.0 μM,+++ (+++ = <50% Vehicle)
same,% IL-8 (Vehicle + LPS = 100%),neutrophil; 3000.0 μM,+++ (+++ = <50% Vehicle)
same,% MIP-1α (Vehicle + LPS = 100%),neutrophil; 3000.0 μM,+++ (+++ = <50% Vehicle)
same,% MIP-1β (DMSO + LPS = 100%),neutrophil; 3000.0 μM,+++ (+++ = <50% Vehicle)
same,IL1β % DMSO control,[1],+ ((+) 50%> <90% DMSO)
"O=c1c(O)c(-c2ccc(O)c(O)c2)oc2cc(O)cc(O)c12 [quercetin, reference compound]",Cell viability % DMSO,naïve CD4+ T cells; 100 nM,= (90%> <110%: =)
same,Cell viability % DMSO,naïve CD4+ T cells; 1 uM,= (90%> <110%: =)
same,% IL-8 (Vehicle + LPS = 100%),neutrophil; 0.1 μM,− (− = >90% Vehicle)
same,% MIP-1α (Vehicle + LPS = 100%),neutrophil; 0.1 μM,− (− = >90% Vehicle)
same,% MIP-1β (DMSO + LPS = 100%),neutrophil; 0.1 μM,− (− = >90% Vehicle)
same,% IL-8 (Vehicle + LPS = 100%),neutrophil; 1.0 μM,− (− = >90% Vehicle)
same,% MIP-1α (Vehicle + LPS = 100%),neutrophil; 1.0 μM,− (− = >90% Vehicle)
same,% MIP-1β (DMSO + LPS = 100%),neutrophil; 1.0 μM,− (− = >90% Vehicle)
same,IL1β % DMSO control,[1],+ ((+) 50%> <90% DMSO)
O=C(O)c1ccccc1 [Benzoic acid],Average CYP1A1 mRNA levels,AhR; 10.0 μM,+ (+ = >2-fold Vehicle)
same,Average CYP1A1 mRNA levels,AhR; 100.0 μM,+ (+ = >2-fold Vehicle)
c1ccc2[nH]ccc2c1 [indole],Average CYP1A1 mRNA levels,AhR; 1000.0 μM,+ (+ = >2-fold Vehicle)
"CCCC(=O)O [Butyric acid, reference compound]",Cell viability % DMSO,naïve CD4+ T cells; 3 mM,− (<90%: −)
same,Mean Ankle Diameter AUC (mm*day),[2],92.46 mm*day
same,Mean Ankle Periosteal Bone width (um),[2],573.30 um
same,Mean Knee Inflammation score (0-5),[2],4.83
same,Mean Terminal hind paw weights,[2],2.4759 g
same,"Mean body weight change, day −1 to 21 (%)",[2],−2.3%
same,Relative Spleen to Body Weight (Mean),[2],0.2416
same,Mean Ankle Bone Resorption score (0-5),"[2]; 0 = normal, 5 = severe",2.95
same,Mean Ankle Cartilage Damage score (0-5),"[2]; 0 = normal, 5 = severe",3.80
same,Mean Ankle Pannus score (0-5),"[2]; 0 = normal, 5 = severe",2.95
same,Mean Ankle Periosteal Bone score (0-5),"[2]; 0 = normal, 5 = severe",3.08
same,Mean Ankle inflammation score (0-5),"[2]; 0 = normal, 5 = severe",2.4759
same,Mean Knee Bone Resorption score (0-5),"[2]; 0 = normal, 5 = severe",2.43
same,Mean Knee Cartilage Damage score (0-5),"[2]; 0 = normal, 5 = severe",3.28
same,Mean Knee Pannus score (0-5),"[2]; 0 = normal, 5 = severe",2.43
same,Serum IgG,[2]; terminal serum ELISA for anti-type II collagen antibodies,5824.57 µg/mL
Cn1cc(C[C@H](N)C(=O)O)c2ccccc21 [1-methylindole-3-alanine],Average CYP1A1 mRNA levels,AhR; 10.0 μM,+ (+ = >2-fold Vehicle)
same,Average CYP1A1 mRNA levels,AhR; 100.0 μM,+++ (+++ = >10-fold Vehicle)
OCc1c[nH]c2ccccc12 [indole-3-carbinol],Average CYP1A1 mRNA levels,AhR; 1000.0 μM,+ (+ = >2-fold Vehicle)
"COC(=O)c1csc(C(=O)c2c[nH]c3ccccc23)n1 [ITE, 2-(1′H-indole-3′-carbonyl)-thiazole-4-carboxylic acid methyl ester]",Average CYP1A1 mRNA levels,AhR; 1.0 μM,+++ (+++ = >10-fold Vehicle)
O=C[C@H](O)[C@@H](O)[C@@H](O)CO [L-arabinose],Cell viability % DMSO,naïve CD4+ T cells; 0.5 mM,= (90%> <110%: =)
same,Cell viability % DMSO,naïve CD4+ T cells; 1 mM,= (90%> <110%: =)
same,% IL-8 (Vehicle + LPS = 100%),neutrophil; 500.0 μM,− (− = >90% Vehicle)
same,% MIP-1α (Vehicle + LPS = 100%),neutrophil; 500.0 μM,− (− = >90% Vehicle)
same,% MIP-1β (DMSO + LPS = 100%),neutrophil; 500.0 μM,− (− = >90% Vehicle)
same,% IL-8 (Vehicle + LPS = 100%),neutrophil; 1000.0 μM,− (− = >90% Vehicle)
same,% MIP-1α (Vehicle + LPS = 100%),neutrophil; 1000.0 μM,− (− = >90% Vehicle)
same,% MIP-1β (DMSO + LPS = 100%),neutrophil; 1000.0 μM,− (− = >90% Vehicle)
same,IL1β % DMSO control,[1],= ((=) 90%> <110% DMSO)
same,IL6 % DMSO control,[1],+ ((+) 50%> <90% DMSO)
same,TNFα % of DMSO control,[1],+ ((+) 50%> <90% DMSO)

# — patent publication US12115178B2, “Acylated active agents and methods of their use for the treatment of autoimmune disorders” (Flagship Pioneering Innovations V, Inc., priority 2018, dated 2024)
